{
  "source": "patent US6620785B2",
  "about": "“Treatment of Mycobacterial diseases by administration of bactericidal/permeability-increasing protein products” (Xoma Corporation, priority 1993, dated 2003)",
  "molecules": {"B1": {"name": "BPI holoprotein: recombinant human bactericidal/permeability-increasing holoprotein, SEQ ID NOS:1 and 2 (protein)", "chain": "MRENMARGPCNAPRWVSLMVLVAIGTAVTAAVNPGVVVRISQKGLDYASQQGTAALQKELKRIKIPDYSDSFKIKHLGKGHYSFYSMDIREFQLPSSQISMVPNVGLKFSISNANIKISGKWKAQKRFLKMSGNFDLSIEGMSISADLKLGSNPTSGKPTITCSSCSSHINSVHVHISKSKVGWLIQLFHKKIESALRNKMNSQVCEKVTNSVSSKLQPYFQTLPVMTKIDSVAGINYGLVAPPATTAETLDVQMKGEFYSENHHNPPPFAPPVMEFPAAHDRMVYLGLSDYFFNTAGLVYQEAGVLKMTLRDDMIPKESKFRLTTKFFGTFLPEVAKKFPNMKIQIHVSASTPPHLSVQPTGLTFYPAVDVQAFAVLPNSSLASLFLIGMHTTGSMEVSAESNRLVGELKLDRLLLELKHSNIGPFPVELLQDIMNYIVPILVLPRVNEKLQKGFPLPTPARVQLYNVVLQPHQNFLLFGADVVYK"}},
  "key": {"[1]": {"system": "M. tuberculosis", "assay": "Bactec growth index assay of M. tuberculosis with rBPI23 and antibiotics (Example 5)", "format": "cell-based"}, "[2]": {"system": "M. tuberculosis (strain H37Ra) induced production of TNF by monocytes/macrophages", "format": "cell-based, human", "conditions": "second test, 4 μg/ml"}},
  "note": "Where two headings read alike, the source gives them in different places.",
  "data": [
    {"molecule": "NNC(=O)c1ccncc1", "note": "[INH, isoniazid]", "values": [
      {"measurement": "growth index", "setting": "[1]; INH alone, no BPI protein product, 0.006-0.05 μg/ml", "value": "increases generally began earlier and rose more steeply at lower doses than at higher doses"}
    ]},
    {"molecule": "CO[C@H]1/C=C/O[C@@]2(C)Oc3c(C)c(O)c4c(O)c(c(/C=N/N5CCN(C)CC5)c(O)c4c3C2=O)NC(=O)/C(C)=C\\C=C\\[C@H](C)[C@H](O)[C@@H](C)[C@@H](O)[C@@H](C)[C@H](OC(C)=O)[C@@H]1C", "note": "[RMP, rifampin]", "values": [
      {"measurement": "growth index", "setting": "[1]; RMP 0.5 and 1.0 μg/ml, entire test period (day 2 to 18)", "value": "essentially no increase in growth index"}
    ]},
    {"molecule": "B1", "values": [
      {"measurement": "inhibition of TNF production", "setting": "[2]; 3×10^5 to 1×10^7 organisms", "value": "Lesser degrees of inhibition"},
      {"measurement": "inhibition of TNF production", "setting": "[2]; highest concentration of organisms, one duplicate test", "value": "no inhibition at all"}
    ]}
  ]
}
